{"source": "patent US20230176063A1", "about": "“PHOTOREACTIVE AND CLEAVABLE PROBES FOR TAGGING BIOMOLECULES” (Academia Sinica, priority 2020, published 2023)", "system": "nucleolin", "experiment": "photoselective tagging of nucleolin using azo probe", "format": "cell-based", "details": "fixed U2OS cells", "procedure": "Nucleolin is a protein found in the nucleolus of eukaryotic cells and involved in the synthesis of ribosomes. Azo-probe 1 was conjugated to a secondary antibody by using BCN-NHS (CAS# 1516551-46-4) as additional linker between Azo-probe 1 and secondary antibody. A sample of U2OS cells was grown on a glass-bottom chamber slide and fixed with 2.4% PFA. The antibody conjugated with Azo-probe 1 was applied to the sample stained with anti-nucleolin antibody. The sample was exposed to 780 nm two-photon irradiation (200mW, 200 µs/pixel) to photocrosslink the light activated warhead to the antibody and subsequently incubated with 1 M sodium dithionite at room temperature for over 16 h to remove non-crosslinked probes. Neutravidin conjugated to Alexa Fluor 647 dye was added and the sample assayed for the Alexa Fluor 647. Alexa Fluor 647 is a bright, far-red-fluorescent dye with excitation ideally suited for the 594 nm or 633 nm laser lines. Results are shown in the top panel of FIG. 12B. A close-up view is shown in the top right side of FIG. 12B. […] A side view is shown in the bottom right of FIG. 12B.", "data": [{"smiles": "O=C(CCCC[C@@H]1SC[C@@H]2NC(=O)N[C@@H]21)N[C@@H](Cc1cn(CCOCCOCCOCCNC(=O)c2ccc(C(=O)c3ccccc3)cc2)nn1)C(=O)NCCc1ccc(O)c(/N=N/c2ccc(C(=O)ON3C(=O)CCC3=O)cc2)c1", "note": "[Azo-probe 1]", "values": [{"measurement": "Alexa Fluor 647 (Neutravidin) staining of tagged nucleolin", "setting": "probe conjugated to secondary antibody via BCN-NHS, 780 nm two-photon irradiation (200mW, 200 µs/pixel), 1 M sodium dithionite over 16 h", "result": "characteristic nucleoli shape is observed"}, {"measurement": "Alexa Fluor 647 (Neutravidin) staining of tagged nucleolin, control region", "setting": "treated the same but not exposed to photoactivating light", "result": "No significant staining was observed"}]}]}
